# Data taken from patent US8859018B2, “Delivery carrier for antimicrobial essential oils” (Nestec S.A., priority 2010, dated 2014).
# Tested on: Zygosaccharomyces bailii (yeast)
# Assay: Challenge test with yeasts in MOS / MAS
# Format: cell-based
# Conditions: for Week 0 (Log cfu/g) / Week 1 (Log cfu/g) / Week 2 (Log cfu/g) / Week 3 (Log cfu/g) / Week 4 (Log cfu/g): 0.10%
# Experimental: Target microorganisms used for the challenge tests (CT) were Zygosaccharomyces bailii (yeast), Aspergillus niger (mould), Penicillium nalgiovense (mould) and Eurotium amstelodami (mould).
# Stock culture of the yeast was revived on MEB. The inoculated broths were incubated at 30° C. for 48-72 hours with constant swirling. The broth cultures were further sub-cultured in the MEB and incubated similarly at 30° C. for 48-72 hours with constant swirling. The final broth cultures were then analyzed for total yeast counts on MEA plate as well as for microbial contamination on PCA by spread plat 0.1-0.5 ml of suspension onto the agar plates respectively. Before the challenge test is initiated, the broth inoculated with yeast was diluted aseptically with sterile Tryptone Salt 0.1% to the desired level such that the inoculation level in the product would be 2-3 log of colony-forming-units (cfu) of yeast per gram (Cfu: colony forming units).
# Challenge Test with yeasts was according to the following steps: 1) Add 100 g of MOS into a 250 ml sterile Schott bottle with screw-cap cover; 2) Add 0.1 ml to 2 ml of yeast (Z. bailii) inoculum to meet the target inoculum of 10^2 to 10^3 cfu/g of MOS into the 100 g MOS and shake to mix well; 3) Pour 35 g of the inoculated MOS into two 150 ml sterile disposable polypropylene container with screw-cap cover; 4) Pipette 1 g of inoculated MOS into 9 ml sterile Tryptone Salt 0.1% diluent and vortex. Perform this in duplicate; 5) Plate 0.1 ml to 0.5 ml of inoculated Tryptone Salt 0.1% onto MEA at appropriate dilutions by Spread Plate Method. Incubate the plates at 30° C. for 3 days for the enumeration of the initial yeast count; 6) Incubate the inoculated MOS in 150 ml containers at 30° C. for a week; 7) After one week, repeat steps 4 to 6 for the weekly monitoring of Z. bailii growth behavior in MOS. Perform the monitoring for a period of 4 weeks; 8) The control was prepared by repeating steps 3 to 7 without using any inoculum.
# The method for producing MAS was the same as for the MOS production in experiment 4. The preparation of the microorganism cultures as well as the challenge tests were identical to the ones described in experiment 4 as well.
# [1] = MAGGI Abalone Sauce, age 0 month
# [2] = MAGGI Abalone Sauce, age 1 month
# [3] = MAGGI Abalone Sauce, age 3 month
# [4] = MAGGI Abalone Sauce, age 6 month
# [5] = MAGGI Abalone Sauce, age 10 month
# [6] = MAGGI Abalone Sauce, age 12 month
# [7] = MAGGI Oyster Sauce, age 0 month
structure (smiles),measurement,setting,value
"C/C=C/C=C/C(=O)[O-].[K+] [KS, potassium sorbate]",Week 0 (Log cfu/g),[1],<1.00 Log cfu/g
same,Week 1 (Log cfu/g),[1],<1.00 Log cfu/g
same,Week 2 (Log cfu/g),[1],<1.00 Log cfu/g
same,Week 3 (Log cfu/g),[1],<1.00 Log cfu/g
same,Week 4 (Log cfu/g),[1],<1.00 Log cfu/g
same,Week 0 (Log cfu/g),[2],<1.00 Log cfu/g
same,Week 1 (Log cfu/g),[2],<1.63 Log cfu/g
same,Week 2 (Log cfu/g),[2],<1.00 Log cfu/g
same,Week 3 (Log cfu/g),[2],<1.00 Log cfu/g
same,Week 4 (Log cfu/g),[2],<1.00 Log cfu/g
same,Week 0 (Log cfu/g),[3],2.96 Log cfu/g
same,Week 1 (Log cfu/g),[3],<1.00 Log cfu/g
same,Week 2 (Log cfu/g),[3],<1.00 Log cfu/g
same,Week 3 (Log cfu/g),[3],<1.00 Log cfu/g
same,Week 4 (Log cfu/g),[3],<1.00 Log cfu/g
same,Week 0 (Log cfu/g),[4],2.13 Log cfu/g
same,Week 1 (Log cfu/g),[4],<1.00 Log cfu/g
same,Week 2 (Log cfu/g),[4],<1.00 Log cfu/g
same,Week 3 (Log cfu/g),[4],<1.00 Log cfu/g
same,Week 4 (Log cfu/g),[4],<1.00 Log cfu/g
same,Week 0 (Log cfu/g),[5],4.43 Log cfu/g
same,Week 1 (Log cfu/g),[5],<2.00 Log cfu/g
same,Week 2 (Log cfu/g),[5],<1.00 Log cfu/g
same,Week 3 (Log cfu/g),[5],<1.00 Log cfu/g
same,Week 4 (Log cfu/g),[5],<1.00 Log cfu/g
same,Week 0 (Log cfu/g),[6],2.84 Log cfu/g
same,Week 1 (Log cfu/g),[6],1.72 Log cfu/g
same,Week 2 (Log cfu/g),[6],<1 Log cfu/g
same,Week 3 (Log cfu/g),[6],<1 Log cfu/g
same,Week 4 (Log cfu/g),[6],<1 Log cfu/g
same,yeast growth,"MAGGI Abalone Sauce, up to 12 months, KS 0.10%, clove leaf oil 0.06 wt % and 0.15 wt %",not detected
same,Week 0 (Log cfu/g),[7],3.544 Log cfu/g
same,Week 1 (Log cfu/g),[7],<1.00 Log cfu/g
same,Week 2 (Log cfu/g),[7],<1.00 Log cfu/g
same,Week 3 (Log cfu/g),[7],<1.00 Log cfu/g
same,Week 4 (Log cfu/g),[7],<1.00 Log cfu/g
